In patent US20230390274A1 (EPIRIUM BIO INC., priority 2020, published 2023):

target: 15-PGDH/HPGD (Homo sapiens (Human), UniProt P15428); experiment: hPGDH inhibitor screening biochemical assay; details: 10 nM 15-PGDH/HPGD, 15 μM PGE2, 0.25 mM NAD; read-out: hPGDH: Average IC50
Procedure, shortened: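 10 nM recombinant 15-PGDH was preincubated with compound (10-point) for 10 min at 37° C. in 50 mM Tris-HCl pH 7.5, 0.01% Tween 20. Then 15 μM PGE2 and 0.25 mM NAD+ were added for 10 min at rt. NADH fluorescence (ex/em 340/485 nm) gave % inhibition versus 1% DMSO and a four-parameter IC50.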

Sequence of 15-PGDH/HPGD (P15428 whole entry): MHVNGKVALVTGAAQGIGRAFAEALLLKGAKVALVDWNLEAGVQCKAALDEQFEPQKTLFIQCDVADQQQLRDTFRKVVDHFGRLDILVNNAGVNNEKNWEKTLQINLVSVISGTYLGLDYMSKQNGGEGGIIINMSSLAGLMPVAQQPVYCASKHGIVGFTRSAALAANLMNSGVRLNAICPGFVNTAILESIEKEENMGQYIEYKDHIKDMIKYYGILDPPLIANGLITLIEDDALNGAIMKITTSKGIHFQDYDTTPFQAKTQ

**Q.** With `O=C(c1cnc2c(ccn2-c2cncc(-c3noc(=O)[nH]3)c2)c1)N1CCC(F)(F)CC1` [A-252, 3-(5-(5-(4,4-difluoropiperidine-1-carbonyl)-1H-pyrrolo[2,3-b]pyridin-1-yl)pyridin-3-yl)-1,2,4-oxadiazol-5(4H)-one] as the compound, how does the IC50 read?
**A.** Its IC50 is under 100 nM.

**Q.** For `O=C(c1cnc2c(ccn2-c2ccc(-c3ncn[nH]3)nc2)c1)N1CCC(F)(F)CC1` [A-253], which IC50 is on record?
**A.** The IC50 was under 100 nM.

**Q.** Which IC50 does the source give for `O=C(c1cnc2c(ccn2-c2ccc(-c3noc(=O)[nH]3)nc2)c1)N1CCC(F)(F)CC1` [A-254, 3-(5-(5-(4,4-difluoropiperidine-1-carbonyl)-1H-pyrrolo[2,3-b]pyridin-1-yl)pyridin-2-yl)-1,2,4-oxadiazol-5(4H)-one] here?
**A.** The IC50 was under 100 nM.

**Q.** `CC1(C)NC(=O)N(c2ccc(-n3ccc4cc(C(=O)N5CCC(F)(F)CC5)cnc43)cn2)C1=O` [A-255] was tested. Which IC50 did it give?
**A.** Its IC50 is under 100 nM.

**Q.** `O=C(Nc1cncc(-n2ccc3cc(C(=O)N4CCC(F)(F)CC4)cnc32)c1)c1ccno1` [A-256] was tested. Which IC50 did it give?
**A.** Its IC50 is under 100 nM.

**Q.** With `O=C(Nc1ccno1)c1cncc(-n2ccc3cc(C(=O)N4CCC(F)(F)CC4)cnc32)c1` [A-257, 5-(5-(4,4-difluoropiperidine-1-carbonyl)-1H-pyrrolo[2,3-b]pyridin-1-yl)-N-(isoxazol-5-yl)nicotinamide] as the compound, how does the IC50 read?
**A.** The IC50 was under 100 nM.

**Q.** With `O=C(Nc1ccno1)c1ccc(-n2ccc3cc(C(=O)N4CCC(F)(F)CC4)cnc32)cn1` [A-258] as the compound, how does the IC50 read?
**A.** Its IC50 is under 100 nM.

**Q.** With `N#Cc1ccc(-n2ccc3nc(C(=O)N4CCC(F)CC4)ccc32)cc1` [A-259, 4-(5-(4-fluoropiperidine-1-carbonyl)-1H-pyrrolo[3,2-b]pyridin-1-yl)benzonitrile] as the compound, how does the IC50 read?
**A.** Its IC50 is at least 1000 nM.

**Q.** `N#Cc1ccc(-n2ccc3cc(C(=O)N4CCC(F)CC4)ncc32)cc1` [A-260, 4-(5-(4-fluoropiperidine-1-carbonyl)-1H-pyrrolo[2,3-c]pyridin-1-yl)benzonitrile] was tested. Which IC50 did it give?
**A.** Its IC50 is at least 1000 nM.

**Q.** Which IC50 does the source give for `O=C(NCCO)c1cccc(-n2ccc3cc(C(=O)N4CCC(F)(F)CC4)cnc32)c1` [A-263, 3-(5-(4,4-difluoropiperidine-1-carbonyl)-1H-pyrrolo[2,3-b]pyridin-1-yl)-N-(2-hydroxyethyl)benzamide] here?
**A.** The IC50 was under 100 nM.

**Q.** How did the IC50 turn out when `O=C(O)c1ccc(-n2ccc3cc(C(=O)N4CCC(F)(F)CC4)cnc32)nc1` [A-264] was run?
**A.** The IC50 was under 100 nM.

**Q.** Which IC50 does the source give for `Cc1nc(-c2cncc(-n3ccc4cc(C(=O)N5CCC(F)(F)CC5)cnc43)c2)no1` [A-265, (4,4-difluoropiperidin-1-yl)(1-(5-(5-methyl-1,2,4-oxadiazol-3-yl)pyridin-3-yl)-1H-pyrrolo[2,3-b]pyridin-5-yl)methanone] here?
**A.** The IC50 was under 100 nM.

**Q.** With `O=C(c1cnc2c(ccn2-c2cncc(N3CCOC3=O)c2)c1)N1CCC(F)(F)CC1` [A-267] as the compound, how does the IC50 read?
**A.** The IC50 was under 100 nM.

**Q.** With `CCNC(=O)c1ccc(-n2ccc3cc(C(=O)N4CCC(F)(F)CC4)cnc32)nc1` [A-268, 6-(5-(4,4-difluoropiperidine-1-carbonyl)-1H-pyrrolo[2,3-b]pyridin-1-yl)-N-ethylnicotinamide] as the compound, how does the IC50 read?
**A.** The IC50 was under 100 nM.

**Q.** `NC[C@@H]1CN(c2ccc(-n3ccc4cc(C(=O)N5CCC(F)(F)CC5)cnc43)cn2)C(=O)O1` [A-269] was tested. Which IC50 did it give?
**A.** The IC50 was under 100 nM.

**Q.** Which IC50 does the source give for `NC[C@@H]1CN(c2cncc(-n3ccc4cc(C(=O)N5CCC(F)(F)CC5)cnc43)c2)C(=O)O1` [A-270] here?
**A.** Its IC50 is under 100 nM.

**Q.** `CS(=O)(=O)NCCNC(=O)c1cccc(-n2ccc3cc(C(=O)N4CCC(F)(F)CC4)cnc32)c1` [A-271, 3-(5-(4,4-difluoropiperidine-1-carbonyl)-1H-pyrrolo[2,3-b]pyridin-1-yl)-N-(2-(methylsulfonamido)ethyl)benzamide] was tested. Which IC50 did it give?
**A.** Its IC50 is under 100 nM.

**Q.** With `O=C(NC1CCS(=O)(=O)CC1)c1cc(Cl)cc(-n2ccc3cc(C(=O)N4CCC(F)(F)CC4)cnc32)c1` [A-272] as the compound, how does the IC50 read?
**A.** The IC50 was under 100 nM.

**Q.** `NC(=O)c1cncc(-n2cc(Cl)c3cc(C(=O)N4CCC(F)(F)CC4)cnc32)c1` [A-273] was tested. Which IC50 did it give?
**A.** Its IC50 is under 100 nM.

**Q.** Which IC50 does the source give for `O=C(c1cnc2c(ccn2-c2cncc(NS(=O)(=O)C3CC3)c2)c1)N1CCC(F)(F)CC1` [A-274, N-(5-(5-(4,4-difluoropiperidine-1-carbonyl)-1H-pyrrolo[2,3-b]pyridin-1-yl)pyridin-3-yl)cyclopropanesulfonamide] here?
**A.** The IC50 was under 100 nM.

**Q.** For `CCOC(=O)Nc1cncc(-n2ccc3cc(C(=O)N4CCC(F)(F)CC4)cnc32)c1` [A-275, ethyl (5-(5-(4,4-difluoropiperidine-1-carbonyl)-1H-pyrrolo[2,3-b]pyridin-1-yl)pyridin-3-yl)carbamate], which IC50 is on record?
**A.** The IC50 was under 100 nM.

**Q.** For `NC(=O)[C@@H]1CCCN1C(=O)c1cccc(-n2ccc3cc(C(=O)N4CCC(F)(F)CC4)cnc32)c1` [A-276, (S)-1-(3-(5-(4,4-difluoropiperidine-1-carbonyl)-1H-pyrrolo[2,3-b]pyridin-1-yl)benzoyl)pyrrolidine-2-carboxamide], which IC50 is on record?
**A.** The IC50 was under 100 nM.

**Q.** With `CC(C)(C(N)=O)c1cncc(-n2ccc3cc(C(=O)N4CCC(F)(F)CC4)cnc32)c1` [A-277, 2-(5-(5-(4,4-difluoropiperidine-1-carbonyl)-1H-pyrrolo[2,3-b]pyridin-1-yl)pyridin-3-yl)-2-methylpropanamide] as the compound, how does the IC50 read?
**A.** Its IC50 is under 100 nM.

**Q.** `NS(=O)(=O)c1cccc(-n2ccc3cc(C(=O)N4CCC(F)(F)CC4)cnc32)c1` [A-279] was tested. Which IC50 did it give?
**A.** The IC50 was under 100 nM.

**Q.** With `NS(=O)(=O)c1ccc(-n2ccc3cc(C(=O)N4CCC(F)(F)CC4)cnc32)cc1` [A-280] as the compound, how does the IC50 read?
**A.** The IC50 was under 100 nM.

**Q.** How did the IC50 turn out when `O=C(c1cnc2c(ccn2-c2cccc(C(=O)N3CCS(=O)(=O)C3)c2)c1)N1CCC(F)(F)CC1` [A-281, (4,4-difluoropiperidin-1-yl)(1-(3-(1,1-dioxidothiazolidine-3-carbonyl)phenyl)-1H-pyrrolo[2,3-b]pyridin-5-yl)methanone] was run?
**A.** The IC50 was under 100 nM.

**Q.** `O=C(Nc1cc(C2CC2)[nH]n1)c1cccc(-n2ccc3cc(C(=O)N4CCC(F)(F)CC4)cnc32)c1` [A-282, N-(5-cyclopropyl-1H-pyrazol-3-yl)-3-(5-(4,4-difluoropiperidine-1-carbonyl)-1H-pyrrolo[2,3-b]pyridin-1-yl)benzamide] was tested. Which IC50 did it give?
**A.** Its IC50 is under 100 nM.

**Q.** Which IC50 does the source give for `O=C(Nc1ccn(C2CC2)n1)c1cccc(-n2ccc3cc(C(=O)N4CCC(F)(F)CC4)cnc32)c1` [A-283, N-(1-cyclopropyl-1H-pyrazol-3-yl)-3-(5-(4,4-difluoropiperidine-1-carbonyl)-1H-pyrrolo[2,3-b]pyridin-1-yl)benzamide] here?
**A.** The IC50 was under 100 nM.

**Q.** With `O=C(Nc1ccn(C2CC2)n1)c1cncc(-n2ccc3cc(C(=O)N4CCC(F)(F)CC4)cnc32)c1` [A-284, N-(1-cyclopropyl-1H-pyrazol-3-yl)-5-(5-(4,4-difluoropiperidine-1-carbonyl)-1H-pyrrolo[2,3-b]pyridin-1-yl)nicotinamide] as the compound, how does the IC50 read?
**A.** The IC50 was under 100 nM.

**Q.** Which IC50 does the source give for `O=C(Nc1cc(C2CC2)[nH]n1)c1cncc(-n2ccc3cc(C(=O)N4CCC(F)(F)CC4)cnc32)c1` [A-285, N-(5-cyclopropyl-1H-pyrazol-3-yl)-5-(5-(4,4-difluoropiperidine-1-carbonyl)-1H-pyrrolo[2,3-b]pyridin-1-yl)nicotinamide] here?
**A.** The IC50 was under 100 nM.

**Q.** Which IC50 does the source give for `N#Cc1cc(-n2ccc3cc(C(=O)N4CCC(F)(F)CC4)cnc32)cnc1O` [A-286] here?
**A.** Its IC50 is under 100 nM.

**Q.** With `O=C(O)c1cccc(-n2ccc3cc(C(=O)N4CCC(F)(F)CC4)cnc32)c1` [A-287, 3-(5-(4,4-difluoropiperidine-1-carbonyl)-1H-pyrrolo[2,3-b]pyridin-1-yl)benzoic acid] as the compound, how does the IC50 read?
**A.** The IC50 was under 100 nM.

**Q.** For `O=C(c1cnc2c(ccn2-c2cc(Cl)cc(C(=O)N3CCS(=O)(=O)CC3)c2)c1)N1CCC(F)(F)CC1` [A-288], which IC50 is on record?
**A.** Its IC50 is under 100 nM.

**Q.** For `CC(C)(C#N)c1cncc(-n2ccc3cc(C(=O)N4CCC(F)(F)CC4)cnc32)c1` [A-289, 2-(5-(5-(4,4-difluoropiperidine-1-carbonyl)-1H-pyrrolo[2,3-b]pyridin-1-yl)pyridin-3-yl)-2-methylpropanenitrile], which IC50 is on record?
**A.** Its IC50 is under 100 nM.

**Q.** With `O=C(c1cnc2c(ccn2-c2ccc(-c3nn[nH]n3)cc2)c1)N1CCC(F)(F)CC1` [A-290, (1-(4-(2H-tetrazol-5-yl)phenyl)-1H-pyrrolo[2,3-b]pyridin-5-yl)(4,4-difluoropiperidin-1-yl)methanone] as the compound, how does the IC50 read?
**A.** Its IC50 is under 100 nM.

**Q.** Which IC50 does the source give for `O=C(c1cnc2c(ccn2-c2cccc(-c3nn[nH]n3)c2)c1)N1CCC(F)(F)CC1` [A-291, (1-(3-(2H-tetrazol-5-yl)phenyl)-1H-pyrrolo[2,3-b]pyridin-5-yl)(4,4-difluoropiperidin-1-yl)methanone] here?
**A.** The IC50 was under 100 nM.

**Q.** Which IC50 does the source give for `O=C(c1cnc2c(ccn2-c2cncc(-c3nc[nH]n3)c2)c1)N1CCC(F)(F)CC1` [A-292, (1-(5-(1H-1,2,4-triazol-3-yl)pyridin-3-yl)-1H-pyrrolo[2,3-b]pyridin-5-yl)(4,4-difluoropiperidin-1-yl)methanone] here?
**A.** The IC50 was under 100 nM.

**Q.** How did the IC50 turn out when `CC(C)(O)CNC(=O)c1cc(Cl)cc(-n2ccc3cc(C(=O)N4CCC(F)(F)CC4)cnc32)c1` [A-293] was run?
**A.** The IC50 was under 100 nM.

**Q.** For `O=C(c1cnc2c(ccn2-c2cccc(C(=O)N3CC[S+]([O-])C3)c2)c1)N1CCC(F)(F)CC1` (stereo not shown) [A-294, (4,4-difluoropiperidin-1-yl)(1-(3-(1-oxidothiazolidine-3-carbonyl)phenyl)-1H-pyrrolo[2,3-b]pyridin-5-yl)methanone], which IC50 is on record?
**A.** The IC50 was under 100 nM.

**Q.** With `O=C(c1cnc2c(c1)c(Cl)cn2-c1cnccn1)N1CCC(F)CC1` [A-295] as the compound, how does the IC50 read?
**A.** Its IC50 is under 100 nM.

**Q.** For `Cc1cncc(-n2cc(Cl)c3cc(C(=O)N4CCC(F)CC4)cnc32)n1` [A-296, (3-chloro-1-(6-methylpyrazin-2-yl)-1H-pyrrolo[2,3-b]pyridin-5-yl)(4-fluoropiperidin-1-yl)methanone], which IC50 is on record?
**A.** Its IC50 is under 100 nM.

**Q.** `O=C(c1cnc2c(ccn2-c2ccc3c(c2)OCO3)c1)N1CCC(F)CC1` [A-298] was tested. Which IC50 did it give?
**A.** Its IC50 is under 100 nM.

**Q.** For `COc1ccc(-n2c(C)nc3cc(C(=O)N4CCC(F)CC4)ccc32)cc1` [A-303], which IC50 is on record?
**A.** The IC50 was under 100 nM.

**Q.** With `COc1ccc(-n2ccc3cc(C(=O)N4CCC(F)CC4)ccc32)cc1` [A-304] as the compound, how does the IC50 read?
**A.** The IC50 was under 100 nM.

**Q.** How did the IC50 turn out when `COc1ccc(-n2cc(C)c3cc(C(=O)N4CCC(F)CC4)ccc32)cc1` [A-305, (4-fluoropiperidin-1-yl)(1-(4-methoxyphenyl)-3-methyl-1H-indol-5-yl)methanone] was run?
**A.** The IC50 was under 100 nM.

**Q.** Which IC50 does the source give for `CCc1nc2cc(C(=O)N3CCC(F)CC3)ccc2n1-c1ccc(OC)cc1` [A-306] here?
**A.** Its IC50 is under 100 nM.
